ChEMBL document CHEMBL3885861, “Open TG-GATES”

Organism: Rattus norvegicus
Assay: Open TG-GATES - Regimen: Single
Format: toxicity, organism-based, Sprague-Dawley
Set-up: regimen Single, gender Male, age 6 weeks
Details: in vivo, po, 0 mg/kg, route gavage, dose level Control; for APTT / Bas / Eos / Fbg / Hb / Ht / Lym / MCH / MCHC / MCV / Mono / Neu / PT / Plat / RBC / Ret / WBC: tissue Blood; for KIDNEY_L / KIDNEY_R / KIDNEY_TOTAL: tissue Kidney; for LIVER: tissue Liver; for A/G / ALP / ALT / AST / BUN / CRE / Ca / Cl / DBIL / GLC / IP / K / LDH / Na / PL / RALB / TBIL / TC / TG / TP / gamma-GTP: tissue Plasma

Compound: CN1C(=O)CCS(=O)(=O)C1c1ccc(Cl)cc1 (configuration not stated) [CHLORMEZANONE]
- TERMINAL_BW (3 h): 226.1 g
- APTT (3 h): 17 s
- Bas (3 h): 0%
- Eos (3 h): 0.8%
- Fbg (3 h): 315.6 mg/dL
- Hb (3 h): 13.7 g/dL
- Ht (3 h): 40.3%
- Lym (3 h): 80.4%
- MCH (3 h): 21.7 pg
- MCHC (3 h): 33.9%
- MCV (3 h): 64.1 fL
- Mono (3 h): 3%
- Neu (3 h): 15%
- PT (3 h): 13.1 s
- Plat (3 h): 122.7 x10_4/uL
- RBC (3 h): 629.8 x10_4/ul
- Ret (3 h): 7.8%
- WBC (3 h): 78.6 x10_2/uL
- KIDNEY_L (3 h): 1 g
- KIDNEY_R (3 h): 1 g
- KIDNEY_TOTAL (3 h): 2 g
- LIVER (3 h): 10.3 g
- A/G (3 h): 0.9
- ALP (3 h): 1820.8 IU/L
- ALT (3 h): 43.6 IU/L
- AST (3 h): 67.4 IU/L
- BUN (3 h): 10.2 mg/dL
- CRE (3 h): 0.1 mg/dL
- Ca (3 h): 11.5 mg/dL
- Cl (3 h): 106.2 meq/L
- DBIL (3 h): 0.036 mg/dL
- GLC (3 h): 182.2 mg/dL
- IP (3 h): 9.5 mg/dL
- K (3 h): 4.2 meq/L
- LDH (3 h): 58.2 IU/L
- Na (3 h): 140.2 meq/L
- PL (3 h): 145.2 mg/dL
- RALB (3 h): 2.7 g/dL
- TBIL (3 h): 0.044 mg/dL
- TC (3 h): 73.8 mg/dL
- TG (3 h): 108.2 mg/dL
- TP (3 h): 5.7 g/dL
- gamma-GTP (3 h): 1 IU/L
- TERMINAL_BW (6 h): 224.1 g
- APTT (6 h): 15.7 s
- Bas (6 h): 0%
- Eos (6 h): 1%
- Fbg (6 h): 310.2 mg/dL
- Hb (6 h): 13.7 g/dL
- Ht (6 h): 40.5%
- Lym (6 h): 75%
- MCH (6 h): 21.9 pg
- MCHC (6 h): 33.8%
- MCV (6 h): 65 fL
- Mono (6 h): 3.4%
- Neu (6 h): 19.8%
- PT (6 h): 13.2 s
- Plat (6 h): 113.5 x10_4/uL
- RBC (6 h): 622.8 x10_4/ul
- Ret (6 h): 7.8%
- WBC (6 h): 97 x10_2/uL
- KIDNEY_L (6 h): 0.9 g
- KIDNEY_R (6 h): 0.9 g
- KIDNEY_TOTAL (6 h): 1.8 g
- LIVER (6 h): 9.3 g
- A/G (6 h): 0.9
- ALP (6 h): 1407 IU/L
- ALT (6 h): 40.8 IU/L
- AST (6 h): 78 IU/L
- BUN (6 h): 10.4 mg/dL
- CRE (6 h): 0.2 mg/dL
- Ca (6 h): 11.6 mg/dL
- Cl (6 h): 107 meq/L
- DBIL (6 h): 0.02 mg/dL
- GLC (6 h): 180.2 mg/dL
- IP (6 h): 9.8 mg/dL
- K (6 h): 4.3 meq/L
- LDH (6 h): 57.8 IU/L
- Na (6 h): 141.8 meq/L
- PL (6 h): 145.6 mg/dL
- RALB (6 h): 2.7 g/dL
- TBIL (6 h): 0.04 mg/dL
- TC (6 h): 85.2 mg/dL
- TG (6 h): 54.4 mg/dL
- TP (6 h): 5.7 g/dL
- gamma-GTP (6 h): 1.4 IU/L
- TERMINAL_BW (9 h): 227.6 g
- APTT (9 h): 15.1 s
- Bas (9 h): 0%
- Eos (9 h): 1%
- Fbg (9 h): 331.4 mg/dL
- Hb (9 h): 13.4 g/dL
- Ht (9 h): 39.9%
- Lym (9 h): 74.4%
- MCH (9 h): 21.2 pg
- MCHC (9 h): 33.5%
- MCV (9 h): 63.1 fL
- Mono (9 h): 3.4%
- Neu (9 h): 20.6%
- PT (9 h): 13.2 s
- Plat (9 h): 116.8 x10_4/uL
- RBC (9 h): 631.4 x10_4/ul
- Ret (9 h): 7.5%
- WBC (9 h): 79.8 x10_2/uL
- KIDNEY_L (9 h): 0.9 g
- KIDNEY_R (9 h): 0.9 g
- KIDNEY_TOTAL (9 h): 1.8 g
- LIVER (9 h): 8.6 g
- A/G (9 h): 0.9
- ALP (9 h): 1793 IU/L
- ALT (9 h): 38.6 IU/L
- AST (9 h): 67.8 IU/L
- BUN (9 h): 10.8 mg/dL
- CRE (9 h): 0.2 mg/dL
- Ca (9 h): 11.1 mg/dL
- Cl (9 h): 105 meq/L
- DBIL (9 h): 0.022 mg/dL
- GLC (9 h): 192.6 mg/dL
- IP (9 h): 11.3 mg/dL
- K (9 h): 3.8 meq/L
- LDH (9 h): 51.4 IU/L
- Na (9 h): 143 meq/L
- PL (9 h): 132 mg/dL
- RALB (9 h): 2.6 g/dL
- TBIL (9 h): 0.044 mg/dL
- TC (9 h): 74.8 mg/dL
- TG (9 h): 52.6 mg/dL
- TP (9 h): 5.5 g/dL
- gamma-GTP (9 h): 1 IU/L
- TERMINAL_BW (24 h): 235.8 g
- APTT (24 h): 17.4 s
- Bas (24 h): 0.2%
- Eos (24 h): 0.8%
- Fbg (24 h): 283.8 mg/dL
- Hb (24 h): 13.4 g/dL
- Ht (24 h): 39.1%
- Lym (24 h): 78.8%
- MCH (24 h): 21.6 pg
- MCHC (24 h): 34.4%
- MCV (24 h): 62.9 fL
- Mono (24 h): 2.8%
- Neu (24 h): 17%
- PT (24 h): 13 s
- Plat (24 h): 115.7 x10_4/uL
- RBC (24 h): 621 x10_4/ul
- Ret (24 h): 7.2%
- WBC (24 h): 77.6 x10_2/uL
- KIDNEY_L (24 h): 1 g
- KIDNEY_R (24 h): 1 g
- KIDNEY_TOTAL (24 h): 2 g
- LIVER (24 h): 10.6 g
- A/G (24 h): 0.9
- ALP (24 h): 1848.2 IU/L
- ALT (24 h): 51.8 IU/L
- AST (24 h): 87 IU/L
- BUN (24 h): 16.4 mg/dL
- CRE (24 h): 0.2 mg/dL
- Ca (24 h): 11.5 mg/dL
- Cl (24 h): 105.2 meq/L
- DBIL (24 h): 0.022 mg/dL
- GLC (24 h): 193.4 mg/dL
- IP (24 h): 8.1 mg/dL
- K (24 h): 4.3 meq/L
- LDH (24 h): 69.4 IU/L
- Na (24 h): 142 meq/L
- PL (24 h): 141.6 mg/dL
- RALB (24 h): 2.7 g/dL
- TBIL (24 h): 0.028 mg/dL
- TC (24 h): 77.4 mg/dL
- TG (24 h): 91.8 mg/dL
- TP (24 h): 5.7 g/dL
- gamma-GTP (24 h): 1 IU/L
